Measurements from publication PMC7539012, “Hyperphosphorylated tau aggregation and cytotoxicity modulators screen identified prescription drugs linked to Alzheimer's disease and cognitive functions” (Scientific Reports, 2020).
Structures can show the parent of a compound that is named as a salt.

Columns and labels:
[1] = tested on: 3xTg mice; conditions: cited from earlier work
[2] = tested on: HEK293T cells; assay: intracellular fibril buildup and cell death after p-tau, ThS/PI double staining; type: cell-based; conditions: 15 µM compound added 24 h after p-tau
Description: Cells were harvested for ThS/PI staining after additional 24 or 48 h. ThS staining helped visualize intracellular fibrils. In this experiment, we used HEK293T cells to avoid potential interference from the endogenous tau. […] To gain a quantitative assessment, the numbers of the four possible combinations of ThS/PI staining were tallied.
(a) Experimental design. […] These images were from T24hr time point in panel (a) with 0.5 µM p-tau treatment. (c) Quantification of ThS and PI stainability among cells. Cells were categorized based on one of the four ThS/PI double-staining patterns. The total number of cells captured microscopically under each treatment was used as the denominator for the calculation of the proportion of each staining pattern, and expressed in this stacked column chart.
(§1) Cell viability assays were tested according to reference[60] with modifications. PTAIs were typically added to cells along with (Fig. 4) or after p-tau was added to cells (Fig. 5). For PTAEs, 10 × concentration of p-tau and the test compounds were assembled for pre-aggregation (without heparin or ThS) for 48 h before adding 10 µl to 100 µl of cells in 96-well plates. Twenty-four or 48 h after the addition of protein/compound, cells were trypsinized and transferred to microcentrifuge tubes, and pelleted at 1000 × g for 5 min at room temperature for FDA, PI, annexin V, and ThS staining. For PI/ThS double staining, cell pellets were resuspended in 20 mM Tris, pH7.4 buffer and incubated with 100 µM ThS for 5 min at room temperature. 5-µg/ml propidium iodide was then added to cell suspension for observation under a microscope.

[3] = tested on: SH-SY5Y cells; assay: cells; conditions: Homo sapiens, SH-SY5Y, read-out: EC50, concentration of compound to reduce p-tau cytotoxicity by 50%, SH-SY5Y, 0.8 µM p-tau
Description: (see below). […] PI is excluded by living cells, but diffuses into dead cells where it binds nucleic acid and emits fluorescence. FDA/PI differential staining thus provides a quantitative assessment of cellular viability. The blue curves in Fig. 4a,b depict the cellular viability after treatment with 0–0.8 µM of p-tau.
P-tau (without pre-aggregation) and compounds were added together to cells. Cell viability was quantified by FDA and PI differential staining 24 h later. […] Cellular viability was characterized as above and plotted against the compound concentration. Trend lines in panels (a)–(c) were obtained with the dose response curve fitting function of the software Origin (Origin Pro 8, OriginLab Corporation, Northampton, MA, USA). (d) Representative images of apoptotic cells after treatment of p-tau. SH-SY5Y cells were treated with 0.6 µM of p-tau for 12 h before harvesting for annexin V and PI staining. […] The percentage of apoptotic SH-SY5Y cells was quantified by annexin V and PI double staining of cells receiving 12 h of the indicated treatment under each column in the graph. Error bars are standard deviations; n = 3.
SH-SY5Y cells were treated with 0–0.6 µM of p-tau in conjunction with varying doses of nitrazepam, prazepam or devazepide. […] The red dotted lines indicate 50% viability. Curve fitting was done with the dose–response fitting function of the software Origin (version 8, OriginLab Inc.). The number in parentheses represents the concentration (in µM) of the indicated compound.
as §1
Supplemental Figure 2. […] SH-SY5Y cells were treated with the indicated concentrations p-tau and compounds (in µM) for 20 hours before FDA/PI differential staining and microscopic quantification. […] 0.2 or 0.4 µM of p-tau and 30 µM of each compound were pre-incubated in aggregation reactions for 24 hours before the 20-hr cell treatment and cytotoxicity quantification. FDA and PI dual staining was performed to measure cellular viability. SH-SY5Y cells Compounds in panel (a) were added to cells along with p-tau without pre-incubation.

[4] = tested on: C291S C322S (C/S) and C291A C322A (C/A) mutant p-tau; assay: aggregation of C/S or C/A mutant p-tau (ThS net change); type: biochemical; conditions: increasing doses of compound
Description: Figure 3 R-(−)-apomorphine and raloxifene are p-tau aggregation inhibitors (PTAIs) that act independently of the redox state of p-tau. (a) and (b) P-tau aggregation inhibition dose response curves of R-(−)-apomorphine and raloxifene. Aggregation of 6 µM of p-tau was done in the presence of the indicated concentrations of either compound. (c) Both R-(−)-apomorphine and raloxifene act independently of the two cysteine residues of p-tau. P-tau aggregation reactions with the C291S C322S (C/S) mutant p-tau were done in the presence of the indicated amounts of either compound. Shown are net changes of ThS over 16 h.
Many “hits” from prior tau-based HTS were non-selective redox modulators, due most likely to the susceptibility of unmodified tau fibrils to the oxidation of two cysteine residues of tau, C291 and C322. Because p-tau aggregation was not affected by changing the two cysteine residues to alanine or serine, we suspected that R-(−)-apomorphine and raloxifene would act independently of these two cysteine. […] By itself, the C/S p-tau gained 130 units of ThS fluorescence over the course of the aggregation reaction (blue column). With increasing doses of either compound, the net gain of ThS fluorescence decreased progressively. […]

[5] = set-up: method as in PMID 21071476; conditions: cited from earlier work
[6] = molecular target: T1, p-tau (Homo sapiens, UniProt P10636); assay: p-tau aggregation assay, dose response (ThS fluorescence, inducer-free); type: biochemical; conditions: 6 µM p-tau, ThS fluorescence
T1 construct: made in house; host or cells: E. coli (PIMAX system)
T1 sequence (P10636 1-412 isoform P10636-7): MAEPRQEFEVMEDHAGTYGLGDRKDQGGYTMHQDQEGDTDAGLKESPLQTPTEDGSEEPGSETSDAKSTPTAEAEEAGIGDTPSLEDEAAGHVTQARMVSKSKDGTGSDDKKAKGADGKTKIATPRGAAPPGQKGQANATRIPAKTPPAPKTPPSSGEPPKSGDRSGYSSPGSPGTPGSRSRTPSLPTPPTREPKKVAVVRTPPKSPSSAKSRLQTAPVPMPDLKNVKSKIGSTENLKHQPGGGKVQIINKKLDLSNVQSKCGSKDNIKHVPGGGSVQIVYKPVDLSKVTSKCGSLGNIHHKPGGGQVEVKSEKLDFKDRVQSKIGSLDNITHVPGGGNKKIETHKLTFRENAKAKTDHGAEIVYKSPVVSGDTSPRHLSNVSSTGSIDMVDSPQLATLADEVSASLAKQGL
Description: Aggregation of 6-µM p-tau under the influence of 30 µM of each of the library compounds or a DMSO vehicle control was monitored in 384-well plates every 10 min for ThS fluorescence changes over 16 h. To assess the quality of the high-throughput p-tau aggregation reactions, we used the T0 and T16hr ThS fluorescence units of no-compound control reactions to calculate the Z′-factor and coefficient of variation (CV), two commonly used criteria for robustness of high-throughput screens (HTS)[62]. A Z′-factor greater than 0.5 and CV smaller than 10% indicate robustness. […] To identify compounds with significant p-tau aggregation modulation, the net change of ThS fluorescence was calculated from all reactions (see Supplemental Table 1 for complete listing).
Aggregation of 6 µM of p-tau was done in the presence of the indicated concentrations of either compound. […] P-tau aggregation reactions with the C291S C322S (C/S) mutant p-tau were done in the presence of the indicated amounts of either compound. Shown are net changes of ThS over 16 h.
Given the tremendous socioeconomical burdens of AD, measures that prevent or delay the onset of the devastating neurodegeneration of AD will be highly impactful. If hyperphosphorylated tau-inflicted neuronal damages are an underpinning for AD and other tauopathies, enhancers of p-tau aggregation (PTAEs) may be risk factors for neurodegeneration. […] Prednicarbate is a synthetic corticosteroid for dermatological use, and carmofur (1-hexylcarbamoyl-5-fluorouracil) is an anti-neoplastic pyrimidine analogue. […] BZDs are among the most widely prescribed medication, in particular to the elderly, for depression and insomnia[70],[71]. We hypothesized that certain BZDs acted as a PTAE to potentiate p-tau aggregation and cytotoxicity. […] We therefore randomly picked nine prescription BZDs for p-tau aggregation assessment (Fig. 6; see Supplemental Fig. 5 for chemical structures). To 6-µM p-tau aggregation reactions, increasing doses of each of these BZDs were added.
Prednicarbate, a synthetic steroid, served as a PTAE control (yellow bars).
The aggregation assays over the course of this project have been done with multi-plate readers from different sources.
A common mix of 6 µM p-tau, 20 mM Tris pH 7.4, 1 mM DTT, and 20 µM ThS was assembled and dispensed to 384-well low-volume plates (10 µl per well) using BioTek EL406 Washer, followed by the addition of 150 nl of the Prestwick Library compounds (final concentration of 30 µM per well) or DMSO in a Beckman Coulter Biomek FX^P workstation. Each plate was covered with an Optical Adhesive Film and incubated at 37 °C for about 10 min. ThS fluorescence was measured every 10 min at 440/490 nm for 16 h by Biotek Synergy Neo Plate Reader. […] The real-time kinetics of ThS signals were collected using Gen5 software.

For `CN1CCc2cccc3c2[C@H]1Cc1ccc(O)c(O)c1-3` [Apomorphine, R-(−)-apomorphine hydrochloride], the “memory in 3xTg mice” value [1] is given as “memory improvement”, the “live cells with cytoplasmic ThS fluorescence” value ([2]; 48-h samples) is given as 26% and the “PI (+) ThS (+) cells” value ([2]; harvested after additional 24 h) is given as 61%. The “PI (+) ThS (+) cells” value ([2]; harvested after additional 48 h) was 44%, the EC50 [3] was 2.9 µM and the “aggregation of C/A or C/S mutant p-tau” value [4] was “effectively inhibited”. The “blood brain barrier passage” value [5] was “can pass the blood brain barrier” and the EC50 [6] was 18.1 µM.
